Laboratory results reported in patent US12077503B2, “Substituted cyclic amides and their use as herbicides” (FMC CORPORATION, priority 2015, dated 2024).

Columns and labels:
Type in all cases: in vivo
[1] = system: barnyardgrass (Echinochloa crus-galli); test: Test C flooded paddy test; conditions: Flood; for Plant response rating (scale of 0 to 100), Barnyardgrass: 0 is no effect, 100 is complete control
Source text: (§1) Plant species in the flooded paddy test consisted of rice (Oryza sativa), sedge, umbrella (small-flower umbrella sedge, Cyperus difformis), ducksalad (Heteranthera limosa), and barnyardgrass (Echinochloa crus-galli) grown to the 2-leaf stage for testing. At time of treatment, test pots were flooded to 3 cm above the soil surface, treated by application of test compounds directly to the paddy water, and then maintained at that water depth for the duration of the test. Treated plants and controls were maintained in a greenhouse for 13 to 15 d, after which time all species were compared to controls and visually evaluated. Plant response ratings, summarized in Table C, are based on a scale of 0 to 100 where 0 is no effect and 100 is complete control. A dash (-) response means no test result.

[2] = system: ducksalad (Heteranthera limosa); test: Test C flooded paddy test; conditions: Flood; for Plant response rating (scale of 0 to 100), Ducksalad: 0 is no effect, 100 is complete control
Source text: as §1

rice (Oryza sativa) = test: Test C flooded paddy test; conditions: Flood; for Plant response rating (scale of 0 to 100), Rice: 0 is no effect, 100 is complete control
Source text: as §1

[3] = system: sedge, umbrella (small-flower umbrella sedge, Cyperus difformis); test: Test C flooded paddy test; conditions: Flood; for Plant response rating (scale of 0 to 100), Sedge, Umbrella: 0 is no effect, 100 is complete control
Source text: as §1

[4] = system: barnyardgrass (Echinochloa crus-galli); test: Test B flooded paddy test; conditions: Flood, 250 g ai/ha; 0 to 100 scale where 0 is no effect and 100 is complete control; 13 to 15 d
Procedure, shortened: (§2)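 Evaluation by eye, against controls, occurred 13–15 d post-treatment in a greenhouse, using a 0 (no effect) to 100 (complete control) scale. Application was into the paddy water, 3 cm deep over the soil, on 2-leaf plants.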

[5] = system: ducksalad (Heteranthera limosa); test: Test B flooded paddy test; conditions: Flood, 250 g ai/ha; 0 to 100 scale where 0 is no effect and 100 is complete control; 13 to 15 d
Procedure, shortened: as §2

rice (Oryra sativa) = test: Test B flooded paddy test; conditions: Flood, 250 g ai/ha; 0 to 100 scale where 0 is no effect and 100 is complete control; 13 to 15 d
Procedure, shortened: as §2

[6] = system: sedge, umbrella (small-flower umbrella sedge, Cyperus difformis); test: Test B flooded paddy test; conditions: Flood, 250 g ai/ha; 0 to 100 scale where 0 is no effect and 100 is complete control; 13 to 15 d
Procedure, shortened: as §2

[7] = system: barnyardgrass (Echinochloa crus-galli); test: Test A postemergence; conditions: postemergence, 0 to 100 scale (0 no effect, 100 complete control)
Procedure, shortened: (§3)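 Preemergence directed soil spray on seeded pots, or postemergence application to plants 2–10 cm, one- to two-leaf. Solvent mixture non-phytotoxic, with surfactant. Scored ~10 d later, visually, 0–100 vs untreated.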

[8] = system: wheat (Triticum aestivum); test: Test A postemergence; conditions: postemergence, 0 to 100 scale (0 no effect, 100 complete control)
Procedure, shortened: as §3

[9] = system: giant foxtail (Setaria faberii); test: Test A postemergence; conditions: postemergence, 0 to 100 scale (0 no effect, 100 complete control)
Procedure, shortened: as §3

[10] = system: pigweed (Amaranthus retroflexus); test: Test A postemergence; conditions: postemergence, 0 to 100 scale (0 no effect, 100 complete control)
Procedure, shortened: as §3

[11] = system: ragweed (common ragweed, Ambrosia elatior); test: Test A postemergence; conditions: postemergence, 0 to 100 scale (0 no effect, 100 complete control)
Procedure, shortened: as §3

corn (Zea mays) = test: Test A postemergence; conditions: postemergence, 0 to 100 scale (0 no effect, 100 complete control)
Procedure, shortened: as §3

[12] = system: Galium (catchweed bedstraw, Galium aparine); test: Test A postemergence; conditions: postemergence, 0 to 100 scale (0 no effect, 100 complete control)
Procedure, shortened: as §3

[13] = system: ryegrass, Italian (Italian ryegrass, Lolium multiflorum); test: Test A postemergence; conditions: postemergence, 0 to 100 scale (0 no effect, 100 complete control)
Procedure, shortened: as §3

[14] = system: blackgrass (Alopecurus myosuroides); test: Test A postemergence; conditions: postemergence, 0 to 100 scale (0 no effect, 100 complete control)
Procedure, shortened: as §3

Kochia (Kochia scoparia) [15] = test: Test A postemergence; conditions: postemergence, 0 to 100 scale (0 no effect, 100 complete control)
Procedure, shortened: as §3

[16] = system: barnyardgrass (Echinochloa crus-galli); test: Test A preemergence
Procedure, shortened: as §3

[17] = system: giant foxtail (Setaria faberii); test: Test A preemergence
Procedure, shortened: as §3

[18] = system: pigweed (Amaranthus retroflexus); test: Test A preemergence
[19] = system: ragweed (common ragweed, Ambrosia elatior); test: Test A preemergence
Procedure, shortened: as §3

[20] = system: ryegrass, Italian (Italian ryegrass, Lolium multiflorum); test: Test A preemergence
Procedure, shortened: as §3

Kochia (Kochia scoparia) [21] = test: Test A preemergence
Procedure, shortened: as §3

[22] = 31 g ai/ha, scale 0 to 100 (0 no effect, 100 complete control), 13 to 15 d
[23] = 125 g ai/ha, visual rating after approx. 10 d
[24] = 500 g ai/ha, visual injury, approx. 10 d
[25] = 125 g ai/ha, Preemergence, visual injury after approximately 10 d, 0 to 100 scale where 0 is no effect and 100 is complete control
[26] = 500 g ai/ha, preemergence, 0 to 100 scale, 0 = no effect, 100 = complete control

Structure (SMILES): Cc1ccc(C2CN(C)C(=O)C2C(=O)Nc2ccccc2F)cc1 (stereo not shown) [Compound 661]
- Plant response rating, Barnyardgrass [1, 22]: 25
- Plant response rating (scale of 0 to 100), Barnyardgrass ([1]; 62 g ai/ha): 70
- Plant response rating (scale of 0 to 100), Barnyardgrass ([1]; 125 g ai/ha): 80
- Plant response rating (scale of 0 to 100), Barnyardgrass ([1]; 250 g ai/ha): 85
- Plant response rating, Ducksalad [2, 22]: 65
- Plant response rating (scale of 0 to 100), Ducksalad ([2]; 62 g ai/ha): 75
- Plant response rating (scale of 0 to 100), Ducksalad ([2]; 125 g ai/ha): 95
- Plant response rating (scale of 0 to 100), Ducksalad ([2]; 250 g ai/ha): 100
- Plant response rating, Rice (rice (Oryza sativa); [22]): 0
- Plant response rating (scale of 0 to 100), Rice (rice (Oryza sativa); 62 g ai/ha): 0
- Plant response rating (scale of 0 to 100), Rice (rice (Oryza sativa); 125 g ai/ha): 0
- Plant response rating (scale of 0 to 100), Rice (rice (Oryza sativa); 250 g ai/ha): 10
- Plant response rating, Sedge, Umbrella [3, 22]: 0
- Plant response rating (scale of 0 to 100), Sedge, Umbrella ([3]; 62 g ai/ha): 0
- Plant response rating (scale of 0 to 100), Sedge, Umbrella ([3]; 125 g ai/ha): 0
- Plant response rating (scale of 0 to 100), Sedge, Umbrella ([3]; 250 g ai/ha): 0
- Plant response rating, Barnyardgrass [4]: 80
- Plant response rating, Ducksalad [5]: 100
- Plant response rating, Rice (rice (Oryra sativa)): 10
- Plant response rating, Sedge, Umbrella [6]: 0
- Plant response rating, Barnyardgrass [7, 23]: 90
- Plant response rating, Barnyardgrass [7, 24]: 90
- Plant response rating, Wheat [8, 23]: 30
- Plant response rating, Wheat [8, 24]: 80
- Plant response rating, Foxtail, Giant [9, 23]: 90
- Plant response rating, Foxtail, Giant [9, 24]: 90
- Plant response rating, Pigweed [10, 23]: 0
- Plant response rating, Pigweed [10, 24]: 0
- Plant response rating, Ragweed [11, 23]: 10
- Plant response rating, Ragweed [11, 24]: 50
- Plant response rating, Corn (corn (Zea mays); [23]): 50
- Plant response rating, Corn (corn (Zea mays); [24]): 90
- Plant response rating, Galium [12, 23]: 50
- Plant response rating, Galium [12, 24]: 60
- Plant response rating, Ryegrass, Italian [13, 23]: 30
- Plant response rating, Ryegrass, Italian [13, 24]: 80
- Plant response rating, Blackgrass [14, 23]: 50
- Plant response rating, Blackgrass [14, 24]: 70
- Plant response rating, Kochia (Kochia (Kochia scoparia) [15]; [23]): 60
- Plant response rating, Kochia (Kochia (Kochia scoparia) [15]; [24]): 70
- Plant response rating, Barnyardgrass [16, 25]: 90
- Plant response rating, Barnyardgrass [16, 26]: 90
- Plant response rating, Foxtail, Giant [17, 25]: 90
- Plant response rating, Foxtail, Giant [17, 26]: 100
- Plant response rating, Pigweed [18, 25]: 0
- Plant response rating, Pigweed [18, 26]: 40
- Plant response rating, Ragweed [19, 25]: 70
- Plant response rating, Ragweed [19, 26]: 80
- Plant response rating, Ryegrass, Italian [20, 25]: 30
- Plant response rating, Ryegrass, Italian [20, 26]: 50
- Plant response rating, Kochia (Kochia (Kochia scoparia) [21]; [25]): 50
- Plant response rating, Kochia (Kochia (Kochia scoparia) [21]; [26]): 70
